Reference: ChEMBL document CHEMBL1201862, “PubChem BioAssay data set” (2004)
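Where inhibition never reached the appropriate level, the endpoint shown equals the highest concentration tested. Otherwise, values were interpolated linearly from a five-concentration, 48-hour dose response in 96-well plates. At the GI50, growth is halved.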 The source made the active and inactive calls. Rule as the data show it: active = GI50 up to about 1.1 µM and inactive = higher.

How the values were obtained:
Assay in all cases: NCI-60 cell line screen, 48 h
HL-60 = system: HL-60
A498 = system: A498
PC-3 = system: PC-3
RPMI-8226 = system: RPMI-8226
TK-10 = system: TK-10
UACC-257 = system: UACC-257
UACC-62 = system: UACC-62
MDA-MB-435 = system: MDA-MB-435
SF-268 = system: SF-268
HCC 2998 = system: HCC 2998
U-251 = system: U-251
HOP-92 = system: HOP-92
MCF7 = system: MCF7
M14 = system: M14
SK-MEL-2 = system: SK-MEL-2
OVCAR-8 = system: OVCAR-8
ACHN = system: ACHN
Hs-578T = system: Hs-578T
RXF 393 = system: RXF 393
SR = system: SR

| Compound | GI50 (HL-60) | GI50 (A498) | GI50 (PC-3) | GI50 (RPMI-8226) | GI50 (TK-10) | GI50 (UACC-257) | GI50 (UACC-62) | GI50 (MDA-MB-435) | GI50 (SF-268) | GI50 (HCC 2998) | GI50 (U-251) | GI50 (HOP-92) | GI50 (MCF7) | GI50 (M14) | GI50 (SK-MEL-2) | GI50 (OVCAR-8) | GI50 (ACHN) | GI50 (Hs-578T) | GI50 (RXF 393) | GI50 (SR) |
| --- | --- | --- | --- | --- | --- | --- | --- | --- | --- | --- | --- | --- | --- | --- | --- | --- | --- | --- | --- | --- |
| C/C(=C\CO)CC[C@@H]1[C@@]2(C)CCCC(C)(C)[C@@H]2CC[C@@]1(C)O | 20.5 µM (inactive) | 17 µM (inactive) | 16.4 µM (inactive) | 17.2 µM (inactive) | 17.5 µM (inactive) | 19.5 µM (inactive) | 14.1 µM (inactive) | 18.3 µM (inactive) | 17.7 µM (inactive) | 16 µM (inactive) | 17.3 µM (inactive) | 16.7 µM (inactive) | 17.1 µM (inactive) | 23.4 µM (inactive) | 17.6 µM (inactive) | 16.2 µM (inactive) | 34.2 µM (inactive) | 24 µM (inactive) | 17.6 µM (inactive) | – |
| CC(=O)Oc1c(C)cc(-c2cc(C)c(OC(C)=O)c(C)c2)cc1C | 35.2 µM (inactive) | – | 14.1 µM (inactive) | > 100 µM (inactive) | 30.5 µM (inactive) | 41.6 µM (inactive) | 23 µM (inactive) | 3.05 µM (inactive) | 36 µM (inactive) | – | 15 µM (inactive) | 36.3 µM (inactive) | > 100 µM (inactive) | 31.1 µM (inactive) | 41.6 µM (inactive) | 37.1 µM (inactive) | 33 µM (inactive) | 15.7 µM (inactive) | – | 75.2 µM (inactive) |
| O=C1C=C(O)C(=O)c2c(O)ccc(O)c21 | 58.5 µM (inactive) | > 100 µM (inactive) | > 100 µM (inactive) | > 100 µM (inactive) | > 100 µM (inactive) | > 100 µM (inactive) | > 100 µM (inactive) | > 100 µM (inactive) | > 100 µM (inactive) | > 100 µM (inactive) | > 100 µM (inactive) | > 100 µM (inactive) | > 100 µM (inactive) | > 100 µM (inactive) | > 100 µM (inactive) | > 100 µM (inactive) | > 100 µM (inactive) | > 100 µM (inactive) | > 100 µM (inactive) | – |
| COc1cc(-c2c3c([nH]c(=O)c2C#N)-c2cc([N+](=O)[O-])ccc2CCC3)cc(OC)c1OC | 21.4 µM (inactive) | 14.2 µM (inactive) | 20.2 µM (inactive) | 9.08 µM (inactive) | 34.8 µM (inactive) | 26.9 µM (inactive) | 13.3 µM (inactive) | 25.9 µM (inactive) | 24.2 µM (inactive) | 17.2 µM (inactive) | 23.6 µM (inactive) | 25.4 µM (inactive) | 17.4 µM (inactive) | 35.1 µM (inactive) | 17.9 µM (inactive) | 17.8 µM (inactive) | 21 µM (inactive) | 13.3 µM (inactive) | 22.1 µM (inactive) | – |
| CCN(CC)CCC(=O)Nc1ccc2sc3ccccc3c(=O)c2n1 | 7.98 µM (inactive) | – | 15.4 µM (inactive) | 12.1 µM (inactive) | 18 µM (inactive) | 17.3 µM (inactive) | 17.7 µM (inactive) | 13.1 µM (inactive) | 17.1 µM (inactive) | 19.7 µM (inactive) | 14.9 µM (inactive) | 0.02 µM (active) | 13.3 µM (inactive) | 13.8 µM (inactive) | 19.8 µM (inactive) | 17.5 µM (inactive) | 16.3 µM (inactive) | 20.7 µM (inactive) | – | 15.9 µM (inactive) |
| COc1ccc(-c2oc3ccc(C)cc3c(=O)c2O)cc1 | 58.7 µM (inactive) | > 100 µM (inactive) | > 100 µM (inactive) | 9.95 µM (inactive) | 32.1 µM (inactive) | > 100 µM (inactive) | > 100 µM (inactive) | > 100 µM (inactive) | 45 µM (inactive) | > 100 µM (inactive) | 28.6 µM (inactive) | > 100 µM (inactive) | > 100 µM (inactive) | > 100 µM (inactive) | > 100 µM (inactive) | 23.1 µM (inactive) | 31.9 µM (inactive) | > 100 µM (inactive) | > 100 µM (inactive) | – |
